Measurements from publication PMC7316778 (Nature Communications, 2020).
Like-named read-outs stand apart in the source and are kept apart here.

Assays:
Experiment in all cases: SelectScreen kinase assay
EEF2K = biological target: T1, EEF2K (Homo sapiens, UniProt O00418)
T1 sequence (O00418 1-725): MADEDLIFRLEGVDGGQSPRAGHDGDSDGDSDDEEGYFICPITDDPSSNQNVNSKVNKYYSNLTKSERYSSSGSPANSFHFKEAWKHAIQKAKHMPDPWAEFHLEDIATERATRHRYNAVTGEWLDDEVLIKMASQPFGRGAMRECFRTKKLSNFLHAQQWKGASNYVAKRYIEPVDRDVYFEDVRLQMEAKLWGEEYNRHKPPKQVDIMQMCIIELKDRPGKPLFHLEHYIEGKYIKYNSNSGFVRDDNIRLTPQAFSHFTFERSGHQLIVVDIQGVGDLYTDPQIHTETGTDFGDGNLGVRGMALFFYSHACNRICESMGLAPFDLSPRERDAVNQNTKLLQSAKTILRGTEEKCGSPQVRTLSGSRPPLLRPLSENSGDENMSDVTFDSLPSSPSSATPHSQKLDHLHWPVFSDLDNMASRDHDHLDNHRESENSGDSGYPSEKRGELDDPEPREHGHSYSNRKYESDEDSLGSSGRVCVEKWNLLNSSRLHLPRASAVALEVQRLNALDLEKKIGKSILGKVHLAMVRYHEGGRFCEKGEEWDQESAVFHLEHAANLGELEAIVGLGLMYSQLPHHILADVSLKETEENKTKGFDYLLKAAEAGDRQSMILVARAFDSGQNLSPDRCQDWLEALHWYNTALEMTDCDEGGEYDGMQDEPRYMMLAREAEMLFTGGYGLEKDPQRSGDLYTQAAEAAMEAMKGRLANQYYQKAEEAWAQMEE
Description: (§1) Selectivity profiling assays were performed by the Invitrogen SelectScreen™ Services. […] The concentration of ATP was selected to be equal to the KM, unless indicated otherwise.

MYO3B (MYO3 beta) = biological target: T2, MYO3B (MYO3 beta) (Homo sapiens, UniProt Q8WXR4)
T2 sequence (Q8WXR4 1-1341): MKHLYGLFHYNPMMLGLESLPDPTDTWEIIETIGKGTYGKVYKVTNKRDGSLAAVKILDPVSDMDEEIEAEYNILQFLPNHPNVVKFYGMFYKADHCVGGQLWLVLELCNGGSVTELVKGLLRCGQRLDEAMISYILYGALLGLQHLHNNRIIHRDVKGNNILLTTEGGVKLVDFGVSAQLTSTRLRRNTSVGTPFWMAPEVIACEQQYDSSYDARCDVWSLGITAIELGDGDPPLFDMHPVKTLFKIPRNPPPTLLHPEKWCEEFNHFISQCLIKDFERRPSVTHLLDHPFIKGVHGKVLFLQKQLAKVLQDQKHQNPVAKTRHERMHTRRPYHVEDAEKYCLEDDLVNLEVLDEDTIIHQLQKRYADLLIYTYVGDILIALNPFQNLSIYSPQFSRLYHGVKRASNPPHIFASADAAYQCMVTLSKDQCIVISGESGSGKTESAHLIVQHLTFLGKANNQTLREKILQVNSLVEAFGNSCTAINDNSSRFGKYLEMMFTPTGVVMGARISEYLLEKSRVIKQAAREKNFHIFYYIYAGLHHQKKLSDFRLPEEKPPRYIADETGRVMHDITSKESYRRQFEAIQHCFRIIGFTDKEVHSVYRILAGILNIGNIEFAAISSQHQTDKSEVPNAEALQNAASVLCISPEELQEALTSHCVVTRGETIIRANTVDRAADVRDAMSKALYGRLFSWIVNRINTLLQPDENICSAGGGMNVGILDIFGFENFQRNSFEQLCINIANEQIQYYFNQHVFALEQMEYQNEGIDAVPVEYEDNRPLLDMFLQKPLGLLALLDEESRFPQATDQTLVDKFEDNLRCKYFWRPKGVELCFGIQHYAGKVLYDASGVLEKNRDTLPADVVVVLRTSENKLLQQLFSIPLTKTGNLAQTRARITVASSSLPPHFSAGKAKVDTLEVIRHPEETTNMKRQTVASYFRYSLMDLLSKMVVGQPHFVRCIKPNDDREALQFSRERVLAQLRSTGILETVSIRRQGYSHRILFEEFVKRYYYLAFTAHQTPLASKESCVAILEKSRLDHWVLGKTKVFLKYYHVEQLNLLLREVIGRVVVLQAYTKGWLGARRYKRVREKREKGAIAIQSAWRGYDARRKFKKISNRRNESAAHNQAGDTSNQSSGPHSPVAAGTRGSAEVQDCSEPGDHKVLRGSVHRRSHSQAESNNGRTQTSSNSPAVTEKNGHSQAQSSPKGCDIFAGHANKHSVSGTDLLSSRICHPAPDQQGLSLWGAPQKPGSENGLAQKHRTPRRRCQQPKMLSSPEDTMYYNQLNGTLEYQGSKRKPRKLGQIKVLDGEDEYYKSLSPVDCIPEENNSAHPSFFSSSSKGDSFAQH
Description: as §1

TAOK1 = TAOK1 (Homo sapiens, UniProt Q7L7X3)
Sequence of TAOK1 (Q7L7X3 whole entry): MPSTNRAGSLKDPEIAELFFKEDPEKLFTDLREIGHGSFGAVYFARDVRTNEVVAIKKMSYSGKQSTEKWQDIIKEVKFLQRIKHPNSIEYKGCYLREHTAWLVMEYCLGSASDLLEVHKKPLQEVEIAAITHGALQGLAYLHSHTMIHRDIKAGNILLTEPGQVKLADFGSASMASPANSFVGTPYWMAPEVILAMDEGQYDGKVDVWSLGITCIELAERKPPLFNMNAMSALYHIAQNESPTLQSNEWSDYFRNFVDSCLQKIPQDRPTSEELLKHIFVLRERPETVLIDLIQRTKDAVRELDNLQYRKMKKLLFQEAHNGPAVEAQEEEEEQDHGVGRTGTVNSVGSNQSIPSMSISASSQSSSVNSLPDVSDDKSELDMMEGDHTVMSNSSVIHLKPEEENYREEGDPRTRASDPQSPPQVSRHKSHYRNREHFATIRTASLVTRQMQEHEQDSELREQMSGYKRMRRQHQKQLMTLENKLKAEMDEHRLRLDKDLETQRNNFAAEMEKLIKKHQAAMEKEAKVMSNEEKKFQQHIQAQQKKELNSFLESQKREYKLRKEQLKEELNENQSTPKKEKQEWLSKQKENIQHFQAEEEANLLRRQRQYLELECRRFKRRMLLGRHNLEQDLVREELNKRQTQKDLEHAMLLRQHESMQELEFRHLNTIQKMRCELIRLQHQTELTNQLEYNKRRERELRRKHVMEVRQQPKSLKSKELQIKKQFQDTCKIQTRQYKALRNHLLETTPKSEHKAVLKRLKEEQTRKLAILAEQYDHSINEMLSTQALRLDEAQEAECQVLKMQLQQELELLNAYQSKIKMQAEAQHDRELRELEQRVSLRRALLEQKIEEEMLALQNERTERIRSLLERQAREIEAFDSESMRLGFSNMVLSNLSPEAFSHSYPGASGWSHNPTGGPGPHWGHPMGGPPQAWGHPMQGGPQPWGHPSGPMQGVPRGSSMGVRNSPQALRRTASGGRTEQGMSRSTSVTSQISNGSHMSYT
Description: as §1

[1] = 1 h, 1 μM WEL028, 1 h preincubation

`C#CCOc1ccc(Nc2ncc(Cl)c(Nc3ccccc3NC(=O)C=C)n2)c(OC)c1` [Compound 6] was tested, and the inhibition at 1 µM (EEF2K; [1]) was 9%, the “Inhibition at 1 µM (%)” value (EEF2K; EEF2K, 1 µM, ZLYTE, ATP Km app, listed as WEL028, 1 µM) was 7% and the inhibition at 1 µM (EEF2K; read-out: Inhibition at 1 µM (%), EEF2K, 1 µM, ZLYTE, ATP Km app) was 12%. For the same compound, the inhibition at 1 µM (MYO3B (MYO3 beta); [1]) was 14%, the “Inhibition at 1 µM (%)” value (MYO3B (MYO3 beta); MYO3B (MYO3 beta), 1 µM, LanthaScreen Binding, listed as WEL028, 1 µM) was 13% and the inhibition at 1 µM (MYO3B (MYO3 beta); read-out: Inhibition at 1 µM (%), MYO3B (MYO3 beta), 1 µM, LanthaScreen Binding) was 15%. It also gave an inhibition at 1 µM (TAOK1; [1]) of 23% and an inhibition at 1 µM (TAOK1; read-out: Inhibition at 1 µM (%), 1 µM, LanthaScreen Binding) of 24%.
